Patent US20240279215A1 (Cytokinetics, Incorporated, priority 2022, published 2024)
Like-named read-outs stand apart in the source and are kept apart here.

Key:
[1] = molecular target: human NAMPT (Homo sapiens (Human), UniProt P43490); assay: NMN fluorescence biochemical assay (human recombinant NAMPT enzyme assay)
Summary of the method: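 Activation of recombinant human NAMPT (6 nM) was tested with 2.5 mM ATP, 20 μM PRPP and 150 μM nicotinamide in 50 mM HEPES pH 7.2 for 60 min at ambient temperature. NMN was derivatized with acetophenone/KOH/formic acid and read by fluorescence (355/460 nm) after 40 min.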

[2] = Brain exposure assay in mice (brain-to-plasma ratio after oral administration); type: in vivo; conditions: mouse, 100 mg/kg; for concentration at 6 h / Kp at 2 h / Kp uu at 2 h / Kp at 6 h / Kp uu at 6 h: male, C57BL/6JNIFDC, oral; for Kp at 2 h / Kp at 6 h: total brain-plasma concentration ratio; for Kp uu at 2 h / Kp uu at 6 h: unbound brain-to-plasma partition coefficient; for Kp at 2 h / Kp uu at 2 h / Cbrain, free (μM) / Cbrain, total (μM) / Cplasma, free (μM) / Cplasma, total (μM): 2 hr
Experimental: This protocol was used to determine the brain-to-plasma ratio in vivo in mice post oral administration of test compounds. Mice (C57BL/6JNIFDC, male, non-fasted, 18-30 g body weight, 3 mice for each timepoint) were dosed orally at 100 mg/kg (10 mg test compound/mL formulation, 10 mL dosing volume/kg) with plasma and brain tissues obtained at 2- and 6-hours post-administration. The oral dosing formulation composition used was 10% N,N-dimethylacetamide:20% propylene glycol:70% of 40% aqueous 2-hydroxypropyl-β-cyclodextrin.
For the isolation of mouse plasma from dosed animals, approximately 0.3 mL blood was collected by orbital sinus bleed and centrifuged (4000 g, 5 minutes, 4° C.). The plasma samples were stored frozen at −75±15° C. until further processing.
For the isolation of brain tissue from dosed animals, whole brain tissues were collected from euthanized and fully exsanguinated mice. The tissues were quickly rinsed with distilled water, dried with absorbent paper, followed by rapid freezing on dry ice and then storage at −75±15° C. until further processing. Brain tissue samples obtained from frozen whole brain were weighed and the samples homogenized using three equivalents of distilled water (3 mL per gram of brain tissue).
Standard and quality control samples were prepared by adding 3 μL of the test compound dimethyl sulfoxide (DMSO) stock solutions to blank plasma (30 μL) and blank brain homogenate aliquots (30 μL). Standard curves for brain and plasma were generated over a 1 to 1,000 ng/g test compound concentration range. For the extraction of test compound from plasma and brain tissue homogenate samples, a solution of acetonitrile containing internal standard ([…]) was added to 30 μL of samples with added 3 μL of DMSO. The samples then were vortex-mixed followed by centrifugation at 4000 rpm (4° C., 15 minutes). The resultant supernatants were diluted 5-fold with distilled water. Finally, 10 μL of the diluted supernatant was injected onto an LC-MS/MS instrument for quantitative analysis of test compound.
The brain-to-plasma ratio was calculated by the relationship: Brain-to-plasma ratio=Cbrain/Cplasma; where Cb is the concentration in brain tissue and Cp is the concentration in plasma at the corresponding timepoint.
Kp is the total brain-plasma concentration ratio; Kp=Cbrain/Cplasma.
Kp, uu is the unbound brain-to-plasma partition coefficient (Kp,uu,brain). It is a measure of the extent of the distribution equilibrium of a compound between the unbound (free) fractions in brain and in blood plasma; Kp, uu brain=Cu, brain/Cu, plasma.

[3] = Plasma protein binding (PPB), mouse; type: in vitro ADME
[4] = Brain tissue binding, mouse; type: in vitro ADME
[5] = tested on: MDCK-MDR1 cells (P-gp, MDR1); assay: MDR1-MDCK bidirectional permeability assay; conditions: A to B
Experimental: (§1) A bidirectional permeability assay using Madin Darby canine kidney cells expressing multi-drug resistance gene 1 (MDCK-MDR1) is routinely used to evaluate discovery compounds' BBB permeability and drug efflux toward the advancement of discovery compounds with brain penetration.
(§2) MDCK-MDR1 Cells (NIH cell line) were obtained from the National Institutes of Health. […] Cell culture medium was replaced every other day, beginning no later than 24 hours after the initial plating. […] The dosing solution concentration was 1 μM for the test article in the assay buffer. Cell monolayers were dosed on the apical side (A-to-B) or basolateral side (B-to-A) and incubated at 37° C. under an atmosphere of 5% CO2 in a humidified incubator. Samples were taken from the donor and receiver chambers at 120 minutes. Each determination was performed in duplicate. After the 120 min transport period, the flux of lucifer yellow was also measured for each monolayer to ensure no damage was inflicted to the cell monolayers during the transport period. All samples were assayed by LC-MS/MS (Waters XSelect HSS T3 C18, 2.5 m, 2.1×50 mm) using electrospray ionization with 0.1% formic acid in water (mobile phase A) and 0.1% formic acid in acetonitrile (mobile phase B) as mobile phases. The apparent permeability coefficient (Papp), in units of cm per second, was calculated for MDCK-MDR1 Cells (NIH cell line) drug transport assays using the following equation:
(§3) Where VA is the volume (in mL) in the acceptor well, Area is the surface area of the membrane (0.143 cm^2 for Transwell-96 Well Permeable Supports), and time is the total transport time in seconds.
(§4) The leakage of Lucifer Yellow (LY), in unit of percentage (%), can be calculated using the following equation:
(§5) LY leakage of <1% is acceptable to indicate the well-qualified MDCK-MDR1(NIH) monolayer.

[6] = tested on: P-gp (MDR1); assay: MDR1-MDCK bidirectional permeability assay; conditions: dog, MDCK-MDR1, pH 7.4, Efflux ratio
Experimental: as §1, §2, §3, §4, §5

[7] = tested on: MDCK-MDR1 cells (P-gp, MDR1); conditions: dog, MDCK-MDR1, 120 min, 1 μM, pH 7.4
Experimental: as §1, §2, §3, §4, §5

[8] = tested on: P-gp (MDR1); assay: in vitro; conditions: dog, MDCK-MDR1, pH 7.4, Efflux ratio
Experimental: as §1, §2, §3, §4, §5

[9] = plasma, read-out: Cplasma, free
[10] = plasma, read-out: Cplasma, total

Sequence of human NAMPT (P43490 whole entry): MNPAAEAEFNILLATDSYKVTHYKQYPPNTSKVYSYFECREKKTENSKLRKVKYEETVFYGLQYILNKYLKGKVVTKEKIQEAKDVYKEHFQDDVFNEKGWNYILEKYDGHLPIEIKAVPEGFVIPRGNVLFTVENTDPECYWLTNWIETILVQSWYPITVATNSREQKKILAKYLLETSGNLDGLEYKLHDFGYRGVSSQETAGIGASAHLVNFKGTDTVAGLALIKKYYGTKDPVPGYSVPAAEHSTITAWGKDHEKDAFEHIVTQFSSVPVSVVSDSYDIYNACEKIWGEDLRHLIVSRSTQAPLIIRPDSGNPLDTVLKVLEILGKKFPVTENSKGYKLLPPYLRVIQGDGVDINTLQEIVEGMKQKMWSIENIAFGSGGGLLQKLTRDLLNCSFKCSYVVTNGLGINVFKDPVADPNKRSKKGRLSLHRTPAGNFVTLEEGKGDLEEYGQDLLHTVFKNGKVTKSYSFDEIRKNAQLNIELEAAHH

fraction unbound ([3]; mouse, plasma)	fraction unbound ([4]; mouse, brain tissue)	PappAB [5]	efflux ratio at 120 min, 1 μM [6]	Structure (SMILES)	AC1.4 Human [1] [µM]	EC50 [1] [µM]	concentration at 6 h ([2]; brain, read-out: Cbrain, free) [nM]	concentration at 6 h ([2]; brain, read-out: Cbrain, total) [nM]	concentration at 6 h [2, 9] [nM]	concentration at 6 h [2, 10] [nM]	Kp at 2 h [2]	Kp uu at 2 h [2]	Kp at 6 h [2]	Kp uu at 6 h [2]	Cbrain, free (μM) [2]	Cbrain, total (μM) [2]	Cplasma, free (μM) [2]	Cplasma, total (μM) [2]	fraction unbound [3]	fraction unbound [4]	further results
0.037	0.053	7.68	1.99	CN(C)S(=O)(=O)N1CCC(Cc2ccc(NC(=O)OCc3cnco3)cc2)CC1 [Compound 27, oxazol-5-ylmethyl (4-((1-(N,N-dimethylsulfamoyl)piperidin-4-yl)methyl)phenyl)carbamate]	0.36	5.25	70	1500	220	5900	0.29	0.41	0.25	0.32	0.64, μM	12.0, μM	1.55, μM	42.1, μM			
				O=C(Nc1ccc(CC2CC3CCC(C2)N3S(=O)(=O)C2CC2)cc1)OCc1cnco1 (stereo not drawn) [Compound 395, oxazol-5-ylmethyl (4-((8-(cyclopropylsulfonyl)-8-azabicyclo[3.2.1]octan-3-yl)methyl)phenyl)carbamate]	0.12	3.2															PappAB [7]: 2.81; efflux ratio at 120 min, 1 μM [8]: 5.02
				CN(C)S(=O)(=O)N1CC2(CC(Cc3ccc(NC(=O)OCc4cnco4)cc3F)C2)C1 [Compound 399, oxazol-5-ylmethyl (4-((2-(N,N-dimethylsulfamoyl)-2-azaspiro[3.3]heptan-6-yl)methyl)-3-fluorophenyl)carbamate]	0.15	3.88	140	11500	270	26800	0.44	0.52	0.43	0.52	0.23, μM	19.5, μM	0.44, μM	44, μM	0.01	0.012	
				CN(C)C(=O)N1CC2(CC(c3ccc(NC(=O)OCc4cnco4)cc3F)C2)C1 [Compound 400, oxazol-5-ylmethyl (4-(2-(dimethylcarbamoyl)-2-azaspiro[3.3]heptan-6-yl)-3-fluorophenyl)carbamate]	0.11	15.4	80	1400	140	3100	0.43	0.53	0.43	0.57	0.31, μM	5.8, μM	0.58, μM	13.5, μM	0.043	0.054	
0.022	0.033	3.53	5.74	CN(C)C(=O)N1CCC(Cc2ccc(NC(=O)OCc3cnco3)cc2F)CC1 [Compound 449, oxazol-5-ylmethyl (4-((1-(dimethylcarbamoyl)piperidin-4-yl)methyl)-3-fluorophenyl)carbamate]	0.10	2.93	280	8400	390	18000	0.42	0.64	0.47	0.72	0.83, μM	25.0, μM	1.30, μM	59.4, μM			

Structure (SMILES)	fraction unbound ([3]; mouse, plasma)	fraction unbound ([4]; mouse, brain tissue)	PappAB [5]	efflux ratio at 120 min, 1 μM [6]	AC1.4 Human [1] [µM]	EC50 [1] [µM]	concentration at 6 h ([2]; brain, read-out: Cbrain, free) [nM]	concentration at 6 h ([2]; brain, read-out: Cbrain, total) [nM]	concentration at 6 h [2, 9] [nM]	concentration at 6 h [2, 10] [nM]	Kp at 2 h [2]	Kp uu at 2 h [2]	Kp at 6 h [2]	Kp uu at 6 h [2]	Cbrain, free (μM) [2]	Cbrain, total (μM) [2]	Cplasma, free (μM) [2]	Cplasma, total (μM) [2]	fraction unbound [3]	fraction unbound [4]	further results
CN(C)C(=O)N1CCC[C@H](c2ccc(NC(=O)OCc3cnco3)cc2)C1 [Compound 376, oxazol-5-ylmethyl (R)-(4-(1-(dimethylcarbamoyl)piperidin-3-yl)phenyl)carbamate]	0.024	0.132	8.06	4.11	0.06	2.02	1000	7500	1090	45500	0.16	0.89	0.16	0.92	2.2, μM	16.5, μM	2.48, μM	104, μM			
